Patent US7022843B1, “β,β′-dihydroxy meso-substituted chlorins, isobacteriochlorins, and bacteriochlorins” (priority 1999, dated 2006)
Values joined by “and” are separate entries in the source; they are usually repeats but may differ in a detail not shown here. Equal values may be shown once.

How the values were obtained:
L1210 cells [1] = test: Phototoxicity in L1210 cells, MTT viability assay; format: cell-based; settings: for LD50: phototoxicity, L1210 cells
Procedure: The above described compounds were tested in vitro for phototoxicity and dark toxicity in L1210 cells as described in the Example section below. Twenty four compounds which were tested for cytotoxicity are listed in Table 3 below along with BPD-MA.
(§1) Phototoxicity was determined with L11210 cells in the presence of the compound as follows: the L1210 cells were exposed to varying concentrations of the compounds in 96-well microtiter plates for one hour at 37° C. and 5% CO2. No fetal calf serum (FCS) was added at this time. The plate was then illuminated for one hour after which a 10% aqueous FCS solution was added to the wells. The plates were then returned to the CO2 incubator overnight. After incubation, the cells were assayed for viability using the MTT assay (Mossman, T. J. Immunol. Meth. 1983, 65, 55).

L1210 cells [2] = test: Dark cytotoxicity in L1210 cells (plates wrapped in aluminum foil); format: cell-based; settings: for LD20dark: L1210 cells, absence of light
Procedure: The above compounds were also tested for dark toxicity. Dark toxicity refers to the toxicity of the drug to cells in the absence of light. This toxicity is, therefore, not due to singlet oxygen mediated cellular damage.
as §1
Dark cytotoxicity was determined while the plates were wrapped in aluminum foil while under the light source.

[3] = 1 h exposure without FCS, 1 h illumination, MTT

For `COc1cc(-c2c3nc(c(-c4ccc(O)c(OC)c4)c4ccc([nH]4)c(-c4ccc(O)c(OC)c4)c4nc(c(-c5ccc(O)c(OC)c5)c5ccc2[nH]5)C(O)C4O)C=C3)ccc1O` (stereo not shown) [Compound 17, T(m-OCH3,p-OH)PC(OH)2], the LD50 (L1210 cells [1]; [3]) was 0.0361 M and 30 ng/mL, the LD50 (L1210 cells [1]; Table 4) was 30 ng/mL and the LD50dark (L1210 cells [2]) was 4500 ng/mL. It also gave an LD20dark (L1210 cells [2]) of 500 ng/mL.

`COc1cc(-c2c3nc(c(-c4cc(OC)c(OC)c(OC)c4)c4ccc([nH]4)c(-c4cc(OC)c(OC)c(OC)c4)c4nc(c(-c5cc(OC)c(OC)c(OC)c5)c5ccc2[nH]5)C(O)C4O)C=C3)cc(OC)c1OC` (stereo not shown) [Compound 18, T(m,p,m′-OCH3)PC(OH)2] was tested, and the LD50 (L1210 cells [1]; [3]) was 0.0198 M and 20 ng/mL, the LD50 (L1210 cells [1]; Table 4) was 20 ng/mL and the LD50dark (L1210 cells [2]) was 20000 ng/mL. For the same molecule, the LD20dark (L1210 cells [2]) was 7500 ng/mL.

`Cc1ccc(-c2c3nc(c(-c4ccc(C)cc4)c4ccc([nH]4)c(-c4ccc(C)cc4)c4nc(c(-c5ccc(C)cc5)c5ccc2[nH]5)C(O)C4O)C=C3)cc1` (stereo not shown) [Compound 21, T(p-CH3)PC(OH)2] was tested, and the LD50 (L1210 cells [1]; [3]) was 9.94 M and 7000 ng/mL, the LD50 (L1210 cells [1]; Table 4) was 7000 ng/mL and the LD50dark (L1210 cells [2]) was 15000 ng/mL. For the same molecule, the LD20dark (L1210 cells [2]) was 5000 ng/mL.

For `Cc1cc(C)c(-c2c3nc(c(-c4c(C)cc(C)cc4C)c4ccc([nH]4)c(-c4c(C)cc(C)cc4C)c4nc(c(-c5c(C)cc(C)cc5C)c5ccc2[nH]5)C(O)C4O)C=C3)c(C)c1` (stereo not shown) [Compound 22, T(o,p,o′-CH3)PC(OH)2], the LD50 (L1210 cells [1]; [3]) was 12.3 M and 10000 ng/mL, the LD50 (L1210 cells [1]; Table 4) was 10000 ng/mL and the LD50dark (L1210 cells [2]) was 18000 ng/mL. It also gave an LD20dark (L1210 cells [2]) of 7500 ng/mL.

`O=S(=O)(O)c1ccc(-c2c3nc(c(-c4ccc(S(=O)(=O)O)cc4)c4ccc([nH]4)c(-c4ccc(S(=O)(=O)O)cc4)c4nc(c(-c5ccc(S(=O)(=O)O)cc5)c5ccc2[nH]5)C(O)C4O)C=C3)cc1` (stereo not shown) [Compound 23, T(p-SO3H)PC(OH)2] was tested, and the LD50 (L1210 cells [1]; [3]) was 1.11 M and 1000 ng/mL, the LD50 (L1210 cells [1]; Table 4) was 1000 ng/mL and the LD50dark (L1210 cells [2]) was >>20000 ng/mL. The LD20dark (L1210 cells [2]) was >20000 ng/mL.

In the case of `CC(C)(C)c1ccc(-c2c3nc(c(-c4ccc(C(C)(C)C)cc4)c4ccc([nH]4)c(-c4ccc(C(C)(C)C)cc4)c4nc(c(-c5ccc(C(C)(C)C)cc5)c5ccc2[nH]5)C(O)C4O)C=C3)cc1` (stereo not shown) [Compound 24, T(p-t-Bu)PC(OH)2], the LD50 (L1210 cells [1]; [3]) is reported as 6.88 M and 6000 ng/mL, the LD50 (L1210 cells [1]; Table 4) is reported as 6000 ng/mL and the LD50dark (L1210 cells [2]) is reported as 7000 ng/mL. It also gave an LD20dark (L1210 cells [2]) of 2000 ng/mL.

With `OC1c2cc3ccc([nH]3)c(-c3ccccc3)c3nc(cc4ccc([nH]4)c(-c4ccccc4)c(n2)C1O)C=C3` (stereo not shown) [Compound 25, diphenyl-2,3-dihydroxychlorin] the “times more potent than BPD-MA” value (L1210 cells [1]; fold potency based on LD50) was 10, the “times more potent than HpD” value (L1210 cells [1]; fold potency based on LD50) was 700 and the “times more potent than Photofrin™” value (L1210 cells [1]; fold potency based on LD50) was 450. For the same molecule, the LD50 (L1210 cells [1]; [3]) was 0.0024 M and 1.2 ng/mL, the LD50 (L1210 cells [1]; 1 h exposure without FCS, 1 h illumination, MTT, listed as diphenyl-2,3-dihydroxychlorin) was 1.2 ng/mL and the LD50 (L1210 cells [1]; Table 4) was 1.2 ng/mL. It also gave an LD50dark (L1210 cells [2]) of 5000 ng/mL and an LD20dark (L1210 cells [2]) of 1500 ng/mL.

With `Oc1ccc(-c2c3nc(c(-c4ccccc4)c4ccc([nH]4)c(-c4ccccc4)c4nc(c(-c5ccccc5)c5ccc2[nH]5)C=C4)C(O)C3O)cc1` (stereo not drawn) [Compound 27, meso-5-(p-hydroxyphenyl)-10,15,20-triphenyl-2,3-dihydroxychlorin] the LD50 (L1210 cells [1]; [3]) was 0.0211 M and 14 ng/mL, the LD50 (L1210 cells [1]; Table 4) was 14 ng/mL and the LD50dark (L1210 cells [2]) was 9000 ng/mL. For the same molecule, the LD20dark (L1210 cells [2]) was 2000 ng/mL.

With `O=[N+]([O-])c1ccc(-c2c3nc(c(-c4ccccc4)c4ccc([nH]4)c(-c4ccccc4)c4nc(c(-c5ccccc5)c5ccc2[nH]5)C=C4)C(O)C3O)cc1` (stereo not drawn) [Compound 28, meso-5-(p-nitrophenyl)-10,15,20-triphenyl-2,3-dihydroxychlorin] the LD50 (L1210 cells [1]; [3]) was 2.42 M and 2000 ng/mL, the LD50 (L1210 cells [1]; Table 4) was 2000 ng/mL and the LD50dark (L1210 cells [2]) was 18000 ng/mL. It also gave an LD20dark (L1210 cells [2]) of 2000 ng/mL.

In the case of `OC1c2nc(c(-c3ccccc3)c3ccc([nH]3)c(-c3ccccc3)c3nc(c(-c4ccccc4)c4ccc([nH]4)c2-c2ccccc2)C(O)C3O)C1O` (stereo not shown) [Compound 29, H2TPB(OH)4], the LD50 (L1210 cells [1]; [3]) is reported as 1.03 M and 700 ng/mL, the LD50 (L1210 cells [1]; Table 4) is reported as 700 ng/mL and the LD50dark (L1210 cells [2]) is reported as 7500 ng/mL. It also gave an LD20dark (L1210 cells [2]) of 2500 ng/mL.

With `COc1cc(OC)c(-c2c3nc(c(-c4c(OC)cc(OC)cc4OC)c4ccc([nH]4)c(-c4c(OC)cc(OC)cc4OC)c4nc(c(-c5c(OC)cc(OC)cc5OC)c5ccc2[nH]5)C(O)C4O)C(O)C3O)c(OC)c1` (stereo not shown) [Compound 30, T(o,p,o′-OCH3)PB(OH)4] the LD50 (L1210 cells [1]; [3]) was 18 ng/mL, the LD50 (L1210 cells [1]; Table 4) was 18 ng/mL and the LD50dark (L1210 cells [2]) was 18000 ng/mL. It also gave an LD20dark (L1210 cells [2]) of 1200 ng/mL.

For T(p-OCH3)PC(OH)2 [Compound 14], the LD50 (L1210 cells [1]; [3]) was 7.81 M and 6000 ng/mL, the LD50 (L1210 cells [1]; Table 4) was 6000 ng/mL and the LD50dark (L1210 cells [2]) was >20000 ng/mL. For the same molecule, the LD20dark (L1210 cells [2]) was 9000 ng/mL.

With T(p-OCOEt)PC(OH)2 [Compound 13] the LD50 (L1210 cells [1]; Table 4) was 1000 ng/mL, the LD50dark (L1210 cells [2]) was 20000 ng/mL and the LD20dark (L1210 cells [2]) was 8000 ng/mL.
